Measured values reported in ChEMBL document CHEMBL4393675, “Discovery of (R)-5-((5-(1-methyl-1H-pyrazol-4-yl)-4-(methylamino)pyrimidin-2-yl)amino)-3-(piperidin-3-yloxy)picolinonitrile, a novel CHK1 inhibitor for hematologic malignancies” (Eur J Med Chem, 2019).

How the values were obtained:
Type in all cases: ADME, organism-based
[1] = MRT in ICR mouse at 15 mg/kg, iv administered and measured for 1 min to 12 hrs by LC/MS/MS analysis; settings: in vivo
[2] = AUC (0 to t) in ICR mouse at 15 mg/kg, iv administered and measured for 1 min to 12 hrs by LC/MS/MS analysis; settings: in vivo
[3] = Half life in ICR mouse at 15 mg/kg, iv administered and measured for 1 min to 12 hrs by LC/MS/MS analysis; settings: in vivo
[4] = AUC (0 to infinity) in ICR mouse at 15 mg/kg, iv administered and measured for 1 min to 12 hrs by LC/MS/MS analysis; parameters: dose 15 mg/kg, time infinity, route intravenous; settings: in vivo
[5] = Volume of distribution at steady state in ICR mouse at 15 mg/kg, iv administered and measured for 1 min to 12 hrs by LC/MS/MS analysis; settings: in vivo, read-out: Vdss
[6] = Cmax in ICR mouse at 15 mg/kg, iv administered and measured for 1 min to 12 hrs by LC/MS/MS analysis; parameters: dose 15 mg/kg, route intravenous; settings: in vivo

MRT [1]: 0.8 h | AUC(0-t) [2]: 363 ng·h/mL | half-life [3]: 2.23 h | AUC [4]: 370 ng·h/mL | Vd [5]: 6.42 L/kg | Cmax [6]: 849 ng/mL
SMILES: CNc1nc(Nc2cnc(C#N)c(O[C@@H]3CCCNC3)c2)ncc1-c1cnn(C)c1
